Results published in patent US6835382B2, “Ii peptide therapeutics to enhance antigen presentation” (University of Massachusetts, priority 1996, dated 2004).

How the values were obtained:
[1] = target: T1, murine E^d MHC class II allele (Mus musculus, UniProt P01904+P01915); test: simultaneous assay, E^d allele (A20 APC, G28.C9 T hybridoma, HEL106-116; HT-2 [3H]TdR readout); format: cell-based; design: The A20 and CH27 B cell lymphoma lines express H-2^d and H-2^k alleles, respectively; endogenous in cells; host or cells: A20 B cell lymphoma (mitomycin C-treated or paraformaldehyde-fixed)
T1 sequence (P01904 26-255): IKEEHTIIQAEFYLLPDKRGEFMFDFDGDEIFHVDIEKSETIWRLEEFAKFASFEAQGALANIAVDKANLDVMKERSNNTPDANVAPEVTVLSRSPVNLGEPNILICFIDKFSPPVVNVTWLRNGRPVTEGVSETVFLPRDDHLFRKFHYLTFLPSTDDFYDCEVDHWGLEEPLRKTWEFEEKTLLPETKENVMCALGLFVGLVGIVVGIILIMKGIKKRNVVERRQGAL
T1 sequence (P01915 27-264 limits assumed): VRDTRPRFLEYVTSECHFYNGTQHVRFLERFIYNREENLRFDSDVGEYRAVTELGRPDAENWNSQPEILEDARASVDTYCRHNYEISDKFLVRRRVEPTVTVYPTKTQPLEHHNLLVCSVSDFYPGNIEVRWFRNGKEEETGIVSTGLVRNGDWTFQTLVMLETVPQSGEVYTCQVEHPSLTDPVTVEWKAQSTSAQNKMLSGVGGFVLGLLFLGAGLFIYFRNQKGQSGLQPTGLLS
Method in brief: (§1)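 Read-out is [3H]TdR incorporation into HT-2 indicator cells exposed to supernatant from a 24 h primary culture. That culture combined mitomycin C-treated APC (5×10^6 cells/mL, 0.025 mg/mL mitomycin C, 20 min, 37° C), peptide, effector compound and T hybridoma, all added at once.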

[2] = tested on: murine E^k MHC class II allele; test: simultaneous assay, E^k allele (CH27 APC, TPc9.1 T hybridoma, THMCC82-103 or PGCC81-104); format: cell-based
Method in brief: as §1

[3] = Table 13, AE peptide 1 μM (fourth value), supernatant 1:4
[4] = Table 13, AE peptide 4 μM (third value), supernatant 1:4
[5] = Table 13, AE peptide 16 μM (second value), supernatant 1:4
[6] = Table 13, AE peptide 64 μM (first value), supernatant 1:4
[7] = Table 14, AE peptide 64 μM, supernatant 1:4
[8] = Table 15, AE peptide 16 μM, supernatant 1:4
[9] = Table 2, AE peptide 64 μM, 0.05 μM HEL106-116, supernatant 1:2
[10] = Table 2, AE peptide 64 μM, 0.05 μM PGCC81-104, supernatant 1:2
[11] = Table 11, AE peptide 64 μM, supernatant 1:8
[12] = Table 11, AE peptide 64 μM, supernatant 1:4
[13] = Table 5, AE peptide 64 μM, supernatant 1:4
[14] = Table 16, AE peptide 4 μM, supernatant 1:8
[15] = Table 5, AE peptide 64 μM, supernatant 1:4, normalized to E^d by a factor of 10

For Ac- (mL) RMKLPK-NH2 [AE174], the “Times Baseline Response, E^d” value [1, 3] was 1, the “Times Baseline Response, E^d” value [1, 4] was 2 and the “Times Baseline Response, E^d” value [1, 5] was 40. The “Times Baseline Response, E^d” value [1, 6] was 55, the “Times Baseline Response, E^d” value [1, 7] was 15.9 and the “Times Baseline Response, E^k” value [2, 3] was 1.6. The “Times Baseline Response, E^k” value [2, 4] was 3.1, the “Times Baseline Response, E^k” value [2, 5] was 9.8 and the “Times Baseline Response, E^k” value [2, 6] was 35.1. For the same substance, the “Times Baseline Response, E^k” value [2, 7] was 34.3.

For Ac-ARMKLPKSAK-NH2 [AE120], the “Times Baseline Response, E^d” value ([1]; Table 10, AE peptide 16 μM (second value), supernatant 1:2) was 18.1, the “Times Baseline Response, E^d” value ([1]; Table 10, AE peptide 64 μM (first value), supernatant 1:2) was 35.4 and the “Times Baseline Response, E^d” value [1, 8] was 19.4. For the same substance, the “Times Baseline Response, E^k” value ([2]; Table 10, AE peptide 64 μM, supernatant 1:2 (first value)) was 36.8, the “Times Baseline Response, E^k” value ([2]; Table 10, AE peptide 64 μM, supernatant 1:4 (second value)) was 34.9 and the “Times Baseline Response, E^k” value [2, 8] was 4.8.

With Ac-ARMKNPK-NH2 [AE345] the “Times Baseline Response, E^d” value [1, 8] was 3.7 and the “Times Baseline Response, E^k” value [2, 8] was 4.8.

In the case of Ac-ARNKLPK-NH2 [AE344], the “Times Baseline Response, E^d” value [1, 8] is reported as 7.7 and the “Times Baseline Response, E^k” value [2, 8] is reported as 2.5.

In the case of Ac-ARNKNPF-NH2 [AE347], the “Times Baseline Response, E^d” value [1, 8] is reported as 1.0 and the “Times Baseline Response, E^k” value [2, 8] is reported as 2.8.

In the case of Ac-ARNKNPK-NH2 [AE346], the “Times Baseline Response, E^d” value [1, 8] is reported as 1.2 and the “Times Baseline Response, E^k” value [2, 8] is reported as 1.8.

For Ac-DSLRMKLPKSAK-NH2 [AE154], the “Times Baseline Response, E^d” value [1, 9] was 15.1 and the “Times Baseline Response, E^k” value [2, 10] was 2.2.

For Ac-L r MKLPK-NH2 [AE161], the “Times Baseline Response, E^d” value [1, 11] was 4.0 and the “Times Baseline Response, E^k” value [2, 12] was 1.1.

For Ac-LDSLRMKLPKSAK-NH2 [AE153], the “Times Baseline Response, E^d” value [1, 9] was 8.5 and the “Times Baseline Response, E^k” value [2, 10] was 1.4.

With Ac-LQLDSLRMKLPKSAK-NH2 [AE151] the “Times Baseline Response, E^d” value [1, 9] was 2.5, the “Times Baseline Response, E^k” value [2, 10] was 0.6 and the “activity in simultaneous assay on E^k, in words” value ([2]; Tables 2 and 18) was “inhibition”.

In the case of Ac-LR (mL) KLPK-NH2 [AE302], the “Times Baseline Response, E^d” value [1, 7] is reported as 4.5 and the “Times Baseline Response, E^k” value [2, 7] is reported as 26.1.

With Ac-LR (mL) KYPK-NH2 [AE303] the “Times Baseline Response, E^d” value [1, 7] was 4.0 and the “Times Baseline Response, E^k” value [2, 7] was 25.3.

With Ac-LR (mL) KYPk-NH2 [AE305] the “Times Baseline Response, E^d” value [1, 7] was 5.2 and the “Times Baseline Response, E^k” value [2, 7] was 26.8.

Ac-LR (mL) KyPK-NH2 [AE304] was tested, and the “Times Baseline Response, E^d” value [1, 7] was 3.9 and the “Times Baseline Response, E^k” value [2, 7] was 13.4.

With Ac-LR (mL) KyPk-NH2 [AE306] the “Times Baseline Response, E^d” value [1, 7] was 3.2 and the “Times Baseline Response, E^k” value [2, 7] was 13.7.

Ac-LR HArg KLPK-NH2 [AE197] was tested, and the “Times Baseline Response, E^d” value [1, 13] was 10.7, the “Times Baseline Response, E^d” value [1, 14] was 16.3 and the “Times Baseline Response, E^k” value [2, 15] was 39.9. The “Times Baseline Response, E^k” value [2, 14] was 1.7.

In the case of “Ac-LR L KLPK-NH2 (Ac-LRLKLPK-NH2; not fully specified; printed as Ac-LR L KLPK-NH2) [AE206]”, the “Times Baseline Response, E^d” value [1, 13] is reported as 11.9, the “Times Baseline Response, E^d” value [1, 7] is reported as 12.7 and the “Times Baseline Response, E^d” value [1, 8] is reported as 25.5. The “Times Baseline Response, E^d” value [1, 14] was 15.5, the “Times Baseline Response, E^k” value [2, 15] was 33.9 and the “Times Baseline Response, E^k” value [2, 7] was 53.5. For the same substance, the “Times Baseline Response, E^k” value [2, 8] was 35.3 and the “Times Baseline Response, E^k” value [2, 14] was 1.3.

With “Ac-LR N KLPK-NH2 (Ac-LRNKLPK-NH2) [AE202]” the “Times Baseline Response, E^d” value [1, 13] was 18.2, the “Times Baseline Response, E^d” value [1, 8] was 34.4 and the “Times Baseline Response, E^k” value [2, 15] was 9.3. The “Times Baseline Response, E^k” value [2, 8] was 5.8.

In the case of Ac-LR m KLPK-NH2 [AE162], the “Times Baseline Response, E^d” value [1, 11] is reported as 2.2 and the “Times Baseline Response, E^k” value [2, 12] is reported as 1.3.

For Ac-LRLK HArg PK-NH2 [AE341], the “Times Baseline Response, E^d” value [1, 8] was 38.9 and the “Times Baseline Response, E^k” value [2, 8] was 42.4.
